Laboratory results from patent US20050085556A1, “Detection of cholesterol ozonation products” (priority 2003, published 2005).
Entries after “also recorded” stand apart in the source; their conditions may differ.

What was measured:
LDL (apoB-100) = LDL (apoB-100) (Homo sapiens, UniProt P04114); assay: Circular dichroism of LDL secondary structure; conditions: LDL 100 μg/ml with compound 10 μM, PBS pH 7.4, 37° C.; for random coil of LDL protein: normal LDL 27±2%; for α helical structure of LDL protein: normal LDL ~40±2%
Sequence of LDL (apoB-100) (P04114 28-4563): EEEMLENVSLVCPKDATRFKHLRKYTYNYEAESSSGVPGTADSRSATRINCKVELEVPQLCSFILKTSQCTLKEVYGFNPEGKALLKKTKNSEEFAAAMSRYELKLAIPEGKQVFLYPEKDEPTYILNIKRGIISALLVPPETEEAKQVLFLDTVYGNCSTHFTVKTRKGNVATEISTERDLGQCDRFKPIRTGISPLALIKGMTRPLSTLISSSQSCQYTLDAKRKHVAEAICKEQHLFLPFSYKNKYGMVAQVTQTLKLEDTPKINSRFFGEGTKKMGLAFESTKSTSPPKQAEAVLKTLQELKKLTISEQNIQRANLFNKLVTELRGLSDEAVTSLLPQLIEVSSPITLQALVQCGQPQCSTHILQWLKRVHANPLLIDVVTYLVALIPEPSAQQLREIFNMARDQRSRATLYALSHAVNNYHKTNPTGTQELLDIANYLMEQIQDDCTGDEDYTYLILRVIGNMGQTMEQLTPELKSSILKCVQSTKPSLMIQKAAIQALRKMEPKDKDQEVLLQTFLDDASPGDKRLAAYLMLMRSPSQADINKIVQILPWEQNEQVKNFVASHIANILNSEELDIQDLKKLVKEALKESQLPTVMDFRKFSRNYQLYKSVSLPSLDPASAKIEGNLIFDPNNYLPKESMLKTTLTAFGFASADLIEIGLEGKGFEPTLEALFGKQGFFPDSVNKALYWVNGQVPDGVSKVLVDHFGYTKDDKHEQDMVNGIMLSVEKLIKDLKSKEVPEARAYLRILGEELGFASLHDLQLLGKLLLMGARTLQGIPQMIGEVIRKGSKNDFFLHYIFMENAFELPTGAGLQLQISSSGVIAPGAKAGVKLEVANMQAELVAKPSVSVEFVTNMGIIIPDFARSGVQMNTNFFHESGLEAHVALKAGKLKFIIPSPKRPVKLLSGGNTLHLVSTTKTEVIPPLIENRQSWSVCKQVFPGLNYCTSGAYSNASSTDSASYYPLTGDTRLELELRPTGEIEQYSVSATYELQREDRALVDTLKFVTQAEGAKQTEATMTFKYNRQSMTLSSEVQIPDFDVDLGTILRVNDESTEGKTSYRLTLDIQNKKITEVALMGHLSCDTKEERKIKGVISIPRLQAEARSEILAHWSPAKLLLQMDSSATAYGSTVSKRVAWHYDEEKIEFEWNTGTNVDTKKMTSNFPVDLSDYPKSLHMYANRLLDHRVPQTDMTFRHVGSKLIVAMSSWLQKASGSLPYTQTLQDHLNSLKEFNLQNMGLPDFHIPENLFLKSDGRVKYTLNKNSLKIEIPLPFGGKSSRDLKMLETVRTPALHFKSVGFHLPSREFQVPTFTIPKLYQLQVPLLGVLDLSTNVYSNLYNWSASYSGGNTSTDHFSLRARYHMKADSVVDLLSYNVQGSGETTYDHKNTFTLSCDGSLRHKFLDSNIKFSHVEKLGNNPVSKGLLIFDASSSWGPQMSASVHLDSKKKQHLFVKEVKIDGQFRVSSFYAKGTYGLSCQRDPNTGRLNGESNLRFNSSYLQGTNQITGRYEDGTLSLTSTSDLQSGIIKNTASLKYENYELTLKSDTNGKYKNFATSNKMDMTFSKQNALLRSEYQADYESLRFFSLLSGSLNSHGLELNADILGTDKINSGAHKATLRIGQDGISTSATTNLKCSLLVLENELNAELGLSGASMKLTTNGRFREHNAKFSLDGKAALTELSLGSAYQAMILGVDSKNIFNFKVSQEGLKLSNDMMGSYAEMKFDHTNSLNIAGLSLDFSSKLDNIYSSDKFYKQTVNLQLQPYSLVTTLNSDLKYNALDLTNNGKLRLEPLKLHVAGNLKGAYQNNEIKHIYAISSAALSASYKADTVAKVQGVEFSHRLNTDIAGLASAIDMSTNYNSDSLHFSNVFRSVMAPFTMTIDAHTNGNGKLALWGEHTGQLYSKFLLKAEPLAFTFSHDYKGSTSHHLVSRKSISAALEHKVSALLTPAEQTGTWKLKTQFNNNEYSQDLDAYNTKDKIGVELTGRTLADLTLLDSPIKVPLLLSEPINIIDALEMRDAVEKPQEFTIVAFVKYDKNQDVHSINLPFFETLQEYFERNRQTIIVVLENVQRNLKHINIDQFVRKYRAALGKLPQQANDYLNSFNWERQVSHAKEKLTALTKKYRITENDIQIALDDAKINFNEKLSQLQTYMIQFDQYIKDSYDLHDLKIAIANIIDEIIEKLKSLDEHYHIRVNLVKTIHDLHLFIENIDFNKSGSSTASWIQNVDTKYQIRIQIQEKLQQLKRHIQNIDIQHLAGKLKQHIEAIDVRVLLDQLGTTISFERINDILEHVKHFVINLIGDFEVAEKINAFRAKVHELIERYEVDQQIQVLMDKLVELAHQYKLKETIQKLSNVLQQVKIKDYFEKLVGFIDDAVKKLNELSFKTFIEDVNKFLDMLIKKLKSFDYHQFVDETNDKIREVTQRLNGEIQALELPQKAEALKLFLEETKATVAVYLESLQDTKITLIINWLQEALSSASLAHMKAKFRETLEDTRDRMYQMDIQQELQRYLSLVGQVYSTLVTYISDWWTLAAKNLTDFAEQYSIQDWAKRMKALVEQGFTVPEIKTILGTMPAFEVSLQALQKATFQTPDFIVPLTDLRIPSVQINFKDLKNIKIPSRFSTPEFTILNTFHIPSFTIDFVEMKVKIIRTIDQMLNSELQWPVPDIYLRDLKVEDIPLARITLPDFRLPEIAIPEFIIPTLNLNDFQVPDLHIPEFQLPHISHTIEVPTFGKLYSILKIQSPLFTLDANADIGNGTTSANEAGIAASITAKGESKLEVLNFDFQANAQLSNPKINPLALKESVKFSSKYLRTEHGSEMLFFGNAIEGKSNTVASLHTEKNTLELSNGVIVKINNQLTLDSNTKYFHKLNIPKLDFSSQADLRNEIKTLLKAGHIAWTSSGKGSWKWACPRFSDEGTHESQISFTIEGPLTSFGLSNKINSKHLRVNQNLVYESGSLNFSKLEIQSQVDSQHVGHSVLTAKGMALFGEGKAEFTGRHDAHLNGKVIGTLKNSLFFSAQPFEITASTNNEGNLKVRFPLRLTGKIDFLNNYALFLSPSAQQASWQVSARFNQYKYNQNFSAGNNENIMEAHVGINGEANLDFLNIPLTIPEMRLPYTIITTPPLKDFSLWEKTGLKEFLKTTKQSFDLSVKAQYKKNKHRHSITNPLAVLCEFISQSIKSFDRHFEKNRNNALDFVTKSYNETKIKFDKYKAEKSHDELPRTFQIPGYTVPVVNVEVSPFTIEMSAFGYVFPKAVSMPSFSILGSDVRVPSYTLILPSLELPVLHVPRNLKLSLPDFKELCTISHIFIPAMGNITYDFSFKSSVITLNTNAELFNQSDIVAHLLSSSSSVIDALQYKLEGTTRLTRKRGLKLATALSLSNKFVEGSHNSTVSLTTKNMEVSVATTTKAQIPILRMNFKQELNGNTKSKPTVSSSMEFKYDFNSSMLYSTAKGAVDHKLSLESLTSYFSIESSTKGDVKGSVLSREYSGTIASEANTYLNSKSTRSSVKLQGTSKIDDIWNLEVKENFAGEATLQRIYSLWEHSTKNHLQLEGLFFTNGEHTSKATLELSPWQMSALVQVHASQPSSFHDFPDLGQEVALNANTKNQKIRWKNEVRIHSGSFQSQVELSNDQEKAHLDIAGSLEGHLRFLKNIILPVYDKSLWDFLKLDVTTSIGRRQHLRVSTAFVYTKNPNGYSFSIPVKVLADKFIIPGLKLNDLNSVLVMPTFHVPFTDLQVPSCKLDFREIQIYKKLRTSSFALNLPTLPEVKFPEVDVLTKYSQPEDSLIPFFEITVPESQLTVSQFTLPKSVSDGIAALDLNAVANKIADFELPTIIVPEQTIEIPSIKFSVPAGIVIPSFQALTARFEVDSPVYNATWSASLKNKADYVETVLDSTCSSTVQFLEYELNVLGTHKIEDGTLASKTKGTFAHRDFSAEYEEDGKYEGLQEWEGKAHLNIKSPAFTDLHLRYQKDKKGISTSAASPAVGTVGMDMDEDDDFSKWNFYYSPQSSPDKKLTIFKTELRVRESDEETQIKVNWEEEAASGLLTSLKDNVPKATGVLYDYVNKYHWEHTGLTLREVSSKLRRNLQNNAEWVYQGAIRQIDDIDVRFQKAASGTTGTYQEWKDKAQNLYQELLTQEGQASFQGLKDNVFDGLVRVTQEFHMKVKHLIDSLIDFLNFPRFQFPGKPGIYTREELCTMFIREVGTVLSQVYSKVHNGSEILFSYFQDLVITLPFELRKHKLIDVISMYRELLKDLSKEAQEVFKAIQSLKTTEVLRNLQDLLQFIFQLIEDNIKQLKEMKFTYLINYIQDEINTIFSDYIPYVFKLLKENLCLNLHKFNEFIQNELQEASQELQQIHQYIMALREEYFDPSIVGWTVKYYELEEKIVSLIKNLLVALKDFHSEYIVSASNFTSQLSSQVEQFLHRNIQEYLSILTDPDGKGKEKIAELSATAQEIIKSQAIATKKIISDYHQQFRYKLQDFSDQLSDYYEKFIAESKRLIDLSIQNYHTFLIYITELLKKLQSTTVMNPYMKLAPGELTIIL
Procedure: Circular dichroism. […] Spectra were recorded in the peptidic range (200-260 nm). To increase the signal-to-noise ratio, multiple spectra (three) were averaged for each measurement.

J774.1 macrophages = assay: Lipid-loading assay (foam cell formation); format: cell-based, murine; conditions: LDL 100 μg/mL plus compound 20 μM, 72 h, oil red O stain
Procedure: Lipid-loading assay (foam cell formation). J774.1 macrophages were incubated in ATCC-recommended media containing 10% fetal bovine serum under a controlled atmosphere of 5 or 7% CO2 at 37° C., in 8-well chamber slides. […] At termination, cells were washed twice with PBS (pH 7.4). The cells were then fixed with 6% (v/v) paraformaldehyde in PBS for 30 minutes, rinsed with propylene glycol for 2 minutes and lipids were stained with 5 mg/ml Oil Red O for 8 minutes. The cells were counterstained with Harris' hematoxylin for 45 seconds, and background staining was removed with […] followed by washing once in PBS and once in tap water. Cover slips were mounted onto the glass slides using glycerol and the slide preparations were examined by light microscopy. The number of lipid-laden cells was scored out of a total of at least 100 cells counted in a single field in each slide, and expressed as a percentage of total cells. Photographs were taken at 100×magnification.

| SMILES | random coil of LDL protein (LDL (apoB-100)) [%] | α helical structure of LDL protein (LDL (apoB-100)) [%] | lipid-loading of macrophages (foam cell formation) (J774.1 macrophages) |
| --- | --- | --- | --- |
| CC(C)CCC[C@@H](C)[C@H]1CCC2C(CC=O)C([C@@]3(C)CC[C@H](O)CC3=O)CC[C@@]21C (stereo partly drawn) [4a, 3β-Hydroxy-5-oxo-5,6-secocholestan-6-al] | ~39±2 | ~23±5 | macrophages began lipid-loading and foam cells began to appear; also recorded: induces lipid-loading of macrophages to produce foam cells |
| CC(C)CCC[C@@H](C)[C@H]1CCC2C3C(CC[C@@]21C)[C@@]1(C)CC[C@H](O)C[C@@]1(O)[C@@H]3C=O (stereo partly drawn) [5a, 3β-Hydroxy-5β-hydroxy-B-norcholestane-6β-carboxaldehyde] | 32±4 | ~20±2 | macrophages began lipid-loading and foam cells began to appear; also recorded: effect of ozonolysis product 4a upon macrophages was indistinguishable from the effect of ozonolysis product 5a |
